Values quoted from earlier work, collected in patent publication US12102751B2, “Positive pressure inhaler for delivery of inhalable medication and methods for use” (priority 2019, dated 2024).

Assays:
[1] = after vaping

| Structure (SMILES) | time after which plasma concentration falls [1] | time at which plasma concentration reaches maximum strength [1] | solubility in most organic solvents (most organic solvents, specifically lipids and alcohols) | solubility in water (water) |
| --- | --- | --- | --- | --- |
| C=C(C)[C@@H]1CCC(C)=C[C@H]1c1c(O)cc(CCCCC)cc1O [CBD, Cannabidiol] | 22 min | 6 min |  |  |
| CCCCCc1cc(O)c2c(c1)OC(C)(C)[C@@H]1CCC(C)=C[C@@H]21 [THC, tetrahydrocannabinol] | 22 min | 6 min | good | very low |
